The values that follow come from patent US10689354B2, “Aminoazole derivative” (Teijin Pharma Limited, priority 2015, dated 2020).

Assay [1] has as its target T1, androgen receptor (AR-LBD) (Rattus norvegicus, UniProt P15207).
T1 construct: 5 μL of 2×AR-LBD/Fluoromone AL Red Complex contained in the kit; purchased Invitrogen
T1 sequence (P15207 651-882 limits assumed): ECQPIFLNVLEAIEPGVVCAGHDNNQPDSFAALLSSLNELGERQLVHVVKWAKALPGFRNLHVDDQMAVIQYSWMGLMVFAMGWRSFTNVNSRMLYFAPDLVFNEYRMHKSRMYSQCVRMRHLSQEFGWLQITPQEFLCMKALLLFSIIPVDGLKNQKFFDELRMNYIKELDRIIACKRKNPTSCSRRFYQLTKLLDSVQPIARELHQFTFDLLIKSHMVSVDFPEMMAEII
The experiment in a line: Evaluation of androgen receptor affinity (PolarScreen Androgen Receptor Competitor Assay Kit, Red; fluorescence polarization). The following applies: 22° C. for 5 hours, relative to binding rate of 1 μM DHT, read-out: AR affinity (pEC50) (converted). The gist of the method: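 pEC50 values reflect tracer displacement from AR-LBD (Fluoromone AL Red complex) measured by fluorescence polarization after 5 h at 22° C, normalized to 1 μM DHT and fitted with a 4-parameter model.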
For orientation: Fluorescence polarisation rises when a labelled molecule tumbles more slowly, as on binding a larger partner.

The target in the next assay is T2, human androgen receptor (Homo sapiens, UniProt P10275).
T2 construct: expressed in transfected cells; host or cells: HEK293
T2 sequence (P10275 1-920): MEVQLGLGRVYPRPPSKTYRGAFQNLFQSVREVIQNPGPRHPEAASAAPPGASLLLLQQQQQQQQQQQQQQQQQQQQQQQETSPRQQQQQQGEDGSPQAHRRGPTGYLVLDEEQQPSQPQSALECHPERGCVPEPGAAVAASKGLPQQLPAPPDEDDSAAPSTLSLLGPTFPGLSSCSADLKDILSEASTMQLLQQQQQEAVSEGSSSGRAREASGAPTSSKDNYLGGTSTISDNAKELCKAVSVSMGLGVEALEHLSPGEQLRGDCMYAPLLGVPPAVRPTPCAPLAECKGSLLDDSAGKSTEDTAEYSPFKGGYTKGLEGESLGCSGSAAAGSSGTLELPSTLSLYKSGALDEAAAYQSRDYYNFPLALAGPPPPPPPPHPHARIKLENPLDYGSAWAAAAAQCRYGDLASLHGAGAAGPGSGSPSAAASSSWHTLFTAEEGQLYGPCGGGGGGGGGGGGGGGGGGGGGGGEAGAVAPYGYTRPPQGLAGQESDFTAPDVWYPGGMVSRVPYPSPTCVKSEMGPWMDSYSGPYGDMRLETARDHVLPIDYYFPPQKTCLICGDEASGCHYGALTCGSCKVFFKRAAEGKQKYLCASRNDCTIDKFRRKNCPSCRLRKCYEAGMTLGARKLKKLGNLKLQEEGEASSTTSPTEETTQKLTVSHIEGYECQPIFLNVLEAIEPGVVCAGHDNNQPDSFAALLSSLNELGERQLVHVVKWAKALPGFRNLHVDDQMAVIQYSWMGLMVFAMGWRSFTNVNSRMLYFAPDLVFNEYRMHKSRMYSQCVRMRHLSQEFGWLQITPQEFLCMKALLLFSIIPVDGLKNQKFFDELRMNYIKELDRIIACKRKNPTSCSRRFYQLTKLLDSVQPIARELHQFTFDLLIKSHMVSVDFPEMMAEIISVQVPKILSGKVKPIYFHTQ
The experiment in a line: Reporter assay of an androgen receptor responsive sequence (luciferase, transiently transfected HEK293 cells). It counts as cell-based. The following applies: 24 hours incubation, relative to activity of 100 nM DHT, read-out: AR transcriptive activity (pEC50) (converted). The gist of the method: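 HEK293 cells transiently transfected for 3 h with ARE-firefly luciferase, full-length human AR and TK-Renilla plasmids, then exposed to compound for 24 h at 37 °C in 5% charcoal-treated FBS/DMEM. Dual-Glo luminescence read; pEC50 from 4-parameter fit relative to 100 nM DHT.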
On the technique in general: A reporter such as luciferase makes a cellular process visible.

Where only a bound is given, the exact number is not on record here.

With `Cc1sc(N(Cc2ccccc2)c2ccc(C#N)cc2)nc1C(=O)NS(=O)(=O)CCC(F)(F)F` [Compound 387, 2-(N-benzyl-4-cyano-anilino)-5-methyl-N-(3,3,3-trifluoropropylsulfonyl)thiazole-4-carboxamide], the EC50 in assay [1] is 63.1 nM; at human androgen receptor, 398 nM.
In the case of `[2H]c1c([2H])c([2H])c(C([2H])([2H])N(c2ccc(C#N)cc2)c2nc(C(=O)NS(C)(=O)=O)c(C)s2)c([2H])c1[2H]` [Compound 388, 2-(4-cyano-N-[dideuterio-(2,3,4,5,6-pentadeuteriophenyl)methyl]anilino)-5-methyl-N-methylsulfonyl-thiazole-4-carboxamide], the EC50 in assay [1] is 50.1 nM; on human androgen receptor it was 63.1 nM.
The matching figures for `Cc1sc(N(Cc2cccc3cccnc23)c2ccc(C#N)cc2)nc1C(=O)NS(C)(=O)=O` [Compound 390, 2-[4-cyano-N-(8-quinolylmethyl)anilino]-5-methyl-N-methylsulfonyl-thiazole-4-carboxamide]: 126 nM and 200 nM.
The matching figures for `Cc1sc(N(Cc2ccccc2)c2ccc(C#N)cc2)nc1C(=O)NS(=O)(=O)CCc1ccccc1` [Compound 391, 2-(N-benzyl-4-cyano-anilino)-5-methyl-N-(2-phenylethylsulfonyl)thiazole-4-carboxamide]: 79.4 nM and over 10000 nM.
For `Cc1sc(N(Cc2ccc(OCc3ccccc3)cc2)c2ccc(C#N)cc2)nc1C(=O)NS(C)(=O)=O` [Compound 393, 2-[N-[(4-benzyloxyphenyl)methyl]-4-cyano-anilino]-5-methyl-N-methylsulfonyl-thiazole-4-carboxamide], the EC50 in assay [1] was 31.6 nM; on human androgen receptor, 398 nM.
On to `Cc1sc(N(Cc2ccccc2)c2ccc(C#N)cc2)nc1C(=O)NS(=O)(=O)Cc1ccncc1` [Compound 395, 2-(N-benzyl-4-cyano-anilino)-5-methyl-N-(4-pyridylmethylsulfonyl)thiazole-4-carboxamide], for which the EC50 in assay [1] was 100 nM; at human androgen receptor, 158 nM.
The matching figures for `Cc1sc(N(Cc2ccccc2)c2ccc(C#N)cc2)nc1C(=O)NS(=O)(=O)Cc1ccccn1` [Compound 396, 2-(N-benzyl-4-cyano-anilino)-5-methyl-N-(2-pyridylmethylsulfonyl)thiazole-4-carboxamide]: 316 nM and 6310 nM.
In the case of `Cc1sc(N(Cc2ccccc2)c2ccc(C#N)cc2)nc1C(=O)NS(=O)(=O)Cc1cccnc1` [Compound 397, 2-(N-benzyl-4-cyano-anilino)-5-methyl-N-(3-pyridylmethylsulfonyl)thiazole-4-carboxamide], the EC50 in assay [1] was 63.1 nM; on human androgen receptor, 126 nM.
In the same order, the values of `COc1cccc(CCN(c2ccc(C#N)cc2)c2nc(C(=O)NS(C)(=O)=O)c(C)s2)c1` [Compound 399, 2-[4-cyano-N-[2-(3-methoxyphenyl)ethyl]anilino]-5-methyl-N-methylsulfonyl-thiazole-4-carboxamide] are 251 nM and over 10000 nM.
The matching figures for `COc1ccc(CCN(c2ccc(C#N)cc2)c2nc(C(=O)NS(C)(=O)=O)c(C)s2)cc1` [Compound 400, 2-[4-cyano-N-[2-(4-methoxyphenyl)ethyl]anilino]-5-methyl-N-methylsulfonyl-thiazole-4-carboxamide]: 631 nM and over 10000 nM.
The matching figures for `Cc1sc(N(CCc2cccc(O)c2)c2ccc(C#N)cc2)nc1C(=O)NS(C)(=O)=O` [Compound 401, 2-[4-cyano-N-[2-(3-hydroxyphenyl)ethyl]anilino]-5-methyl-N-methylsulfonyl-thiazole-4-carboxamide]: 158 nM and 1580 nM.
In the case of `Cc1sc(N(Cc2ccc3ncccc3c2)c2ccc(C#N)cc2)nc1C(=O)NS(C)(=O)=O` [Compound 403, 2-[4-cyano-N-(6-quinolylmethyl)anilino]-5-methyl-N-methylsulfonyl-thiazole-4-carboxamide], the EC50 (in assay [1]; on human androgen receptor) was 251 nM throughout.
For the compound `Cc1sc(N(Cc2ccc3nccnc3c2)c2ccc(C#N)cc2)nc1C(=O)NS(C)(=O)=O` [Compound 404, 2-[4-cyano-N-(quinoxalin-6-ylmethyl)anilino]-5-methyl-N-methylsulfonyl-thiazole-4-carboxamide], the EC50 in assay [1] is 1000 nM; on human androgen receptor, 3160 nM.
As to `Cc1sc(N(CCC2CCCC2O)c2ccc(C#N)cc2)nc1C(=O)NS(C)(=O)=O` (stereo not drawn) [Compound 406, 2-[4-cyano-N-[2-(2-hydroxycyclopentyl)ethyl]anilino]-5-methyl-N-methylsulfonyl-thiazole-4-carboxamide], the EC50 in assay [1] is 794 nM; at human androgen receptor it was 2510 nM.
The matching figures for `Cc1sc(N(CCC2CCCCC2)c2ccc(C#N)cc2)nc1C(=O)NS(C)(=O)=O` [Compound 407, 2-[4-cyano-N-(2-cyclohexylethyl)anilino]-5-methyl-N-methylsulfonyl-thiazole-4-carboxamide]: 50.1 nM and 200 nM.
In the same order, the values of `Cc1sc(N(Cc2ccc(Cl)cc2Cl)c2ccc(C#N)cc2)nc1C(=O)NS(C)(=O)=O` [Compound 413, 2-[4-cyano-N-[(2,4-dichlorophenyl)methyl]anilino]-5-methyl-N-methylsulfonyl-thiazole-4-carboxamide] are 25.1 nM and 501 nM.
As for `Cc1sc(N(Cc2cc(F)cc(C(F)(F)F)c2)c2ccc(C#N)cc2)nc1C(=O)NS(C)(=O)=O` [Compound 416, 2-[4-cyano-N-[[3-fluoro-5-(trifluoromethyl)phenyl]methyl]anilino]-5-methyl-N-methylsulfonyl-thiazole-4-carboxamide], the EC50 in assay [1] was 25.1 nM; at human androgen receptor, 158 nM.
Consider `Cc1sc(N(Cc2cc(C(F)(F)F)ccc2Cl)c2ccc(C#N)cc2)nc1C(=O)NS(C)(=O)=O` [Compound 417, 2-[N-[[2-chloro-5-(trifluoromethyl)phenyl]methyl]-4-cyano-anilino]-5-methyl-N-methylsulfonyl-thiazole-4-carboxamide], for which the values for the EC50 (in assay [1]; at human androgen receptor) were 316 nM and over 10000 nM, respectively.
In the same order, the values of `COc1c(F)c(CN(c2ccc(C#N)cc2)c2nc(C(=O)NS(C)(=O)=O)c(C)s2)c(F)c(F)c1C(F)(F)F` [Compound 418, 2-[4-cyano-N-[[2,3,6-trifluoro-5-methoxy-4-(trifluoromethyl)phenyl]methyl]anilino]-5-methyl-N-methylsulfonyl-thiazole-4-carboxamide] are 50.1 nM and 158 nM.
In the same order, the values of `Cc1sc(N(Cc2ccc([S+]([O-])C(F)(F)F)cc2)c2ccc(C#N)cc2)nc1C(=O)NS(C)(=O)=O` (stereo not drawn) [Compound 419, 2-[4-cyano-N-[[4-(trifluoromethylsulfinyl)phenyl]methyl]anilino]-5-methyl-N-methylsulfonyl-thiazole-4-carboxamide] are 63.1 nM and 631 nM.
In the same order, the values of `Cc1sc(N(Cc2ccc(OC(F)(F)F)c(F)c2)c2ccc(C#N)cc2)nc1C(=O)NS(C)(=O)=O` [Compound 420, 2-[4-cyano-N-[[3-fluoro-4-(trifluoromethoxy)phenyl]methyl]anilino]-5-methyl-N-methylsulfonyl-thiazole-4-carboxamide] are 20 nM and 158 nM.
